Numbers after ± are expanded uncertainties.
Assay: wn = mass fraction of the nth substance listed
Details: for surface tension liquid-gas: Maximal bubble pressure; for mass density: 101 kPa, Liquid, Vibrating tube method

CCCCn1cc[n+](C)c1.NCC(=O)[O-] [1-butyl-3-methylimidazolium glycinate] + O
surface tension liquid-gas (283.15 K, w2 = 0.0081): 45.7 ± 0.4 mN/m
surface tension liquid-gas (283.15 K, w2 = 0.0091): 45.9 ± 0.4 mN/m
surface tension liquid-gas (283.15 K, w2 = 0.0102): 46.1 ± 0.4 mN/m
surface tension liquid-gas (283.15 K, w2 = 0.0118): 46.3 ± 0.4 mN/m
surface tension liquid-gas (283.15 K, w2 = 0.0131): 46.6 ± 0.4 mN/m
mass density (283.15 K, w2 = 0.0081): 1121.2 ± 8 kg/m3
mass density (283.15 K, w2 = 0.0129): 1121.5 ± 8 kg/m3
mass density (283.15 K, w2 = 0.018): 1121.8 ± 8 kg/m3
mass density (283.15 K, w2 = 0.0234): 1122.2 ± 8 kg/m3
mass density (283.15 K, w2 = 0.0293): 1122.6 ± 8 kg/m3
surface tension liquid-gas (288.15 K, w2 = 0.0081): 45.5 ± 0.4 mN/m
surface tension liquid-gas (288.15 K, w2 = 0.0091): 45.7 ± 0.4 mN/m
surface tension liquid-gas (288.15 K, w2 = 0.0102): 45.9 ± 0.4 mN/m
surface tension liquid-gas (288.15 K, w2 = 0.0118): 46.2 ± 0.4 mN/m
surface tension liquid-gas (288.15 K, w2 = 0.0131): 46.4 ± 0.4 mN/m
mass density (288.15 K, w2 = 0.0081): 1118 ± 8 kg/m3
mass density (288.15 K, w2 = 0.0129): 1118.3 ± 8 kg/m3
mass density (288.15 K, w2 = 0.018): 1118.7 ± 8 kg/m3
mass density (288.15 K, w2 = 0.0234): 1119.1 ± 8 kg/m3
mass density (288.15 K, w2 = 0.0293): 1119.5 ± 8 kg/m3
surface tension liquid-gas (293.15 K, w2 = 0.0081): 45.3 ± 0.4 mN/m
surface tension liquid-gas (293.15 K, w2 = 0.0091): 45.5 ± 0.4 mN/m
surface tension liquid-gas (293.15 K, w2 = 0.0102): 45.7 ± 0.4 mN/m
surface tension liquid-gas (293.15 K, w2 = 0.0118): 46 ± 0.4 mN/m
surface tension liquid-gas (293.15 K, w2 = 0.0131): 46.2 ± 0.4 mN/m
mass density (293.15 K, w2 = 0.0081): 1114.8 ± 8 kg/m3
mass density (293.15 K, w2 = 0.0129): 1115.1 ± 8 kg/m3
mass density (293.15 K, w2 = 0.018): 1115.5 ± 8 kg/m3
mass density (293.15 K, w2 = 0.0234): 1115.9 ± 8 kg/m3
mass density (293.15 K, w2 = 0.0293): 1116.3 ± 8 kg/m3
surface tension liquid-gas (298.15 K, w2 = 0.0081): 45 ± 0.4 mN/m
surface tension liquid-gas (298.15 K, w2 = 0.0091): 45.2 ± 0.4 mN/m
surface tension liquid-gas (298.15 K, w2 = 0.0102): 45.4 ± 0.4 mN/m
surface tension liquid-gas (298.15 K, w2 = 0.0118): 45.7 ± 0.4 mN/m
surface tension liquid-gas (298.15 K, w2 = 0.0131): 45.9 ± 0.4 mN/m
mass density (298.15 K, w2 = 0.0081): 1111.5 ± 8 kg/m3
mass density (298.15 K, w2 = 0.0129): 1111.9 ± 8 kg/m3
mass density (298.15 K, w2 = 0.018): 1112.3 ± 8 kg/m3
mass density (298.15 K, w2 = 0.0234): 1112.7 ± 8 kg/m3
mass density (298.15 K, w2 = 0.0293): 1113.1 ± 8 kg/m3
surface tension liquid-gas (303.15 K, w2 = 0.0081): 44.8 ± 0.4 mN/m
surface tension liquid-gas (303.15 K, w2 = 0.0091): 45 ± 0.4 mN/m
surface tension liquid-gas (303.15 K, w2 = 0.0102): 45.2 ± 0.4 mN/m
surface tension liquid-gas (303.15 K, w2 = 0.0118): 45.5 ± 0.4 mN/m
surface tension liquid-gas (303.15 K, w2 = 0.0131): 45.8 ± 0.4 mN/m
mass density (303.15 K, w2 = 0.0081): 1108.4 ± 8 kg/m3
mass density (303.15 K, w2 = 0.0129): 1108.9 ± 8 kg/m3
mass density (303.15 K, w2 = 0.018): 1109.3 ± 8 kg/m3
mass density (303.15 K, w2 = 0.0234): 1109.7 ± 8 kg/m3
mass density (303.15 K, w2 = 0.0293): 1110.2 ± 8 kg/m3
surface tension liquid-gas (308.15 K, w2 = 0.0081): 44.5 ± 0.4 mN/m
surface tension liquid-gas (308.15 K, w2 = 0.0091): 44.7 ± 0.4 mN/m
surface tension liquid-gas (308.15 K, w2 = 0.0102): 44.9 ± 0.4 mN/m
surface tension liquid-gas (308.15 K, w2 = 0.0118): 45.2 ± 0.4 mN/m
surface tension liquid-gas (308.15 K, w2 = 0.0131): 45.5 ± 0.4 mN/m
mass density (308.15 K, w2 = 0.0081): 1105.4 ± 8 kg/m3
mass density (308.15 K, w2 = 0.0129): 1105.7 ± 8 kg/m3
mass density (308.15 K, w2 = 0.018): 1106.2 ± 8 kg/m3
mass density (308.15 K, w2 = 0.0234): 1106.6 ± 8 kg/m3
mass density (308.15 K, w2 = 0.0293): 1107.1 ± 8 kg/m3
surface tension liquid-gas (313.15 K, w2 = 0.0081): 44.2 ± 0.4 mN/m
surface tension liquid-gas (313.15 K, w2 = 0.0091): 44.4 ± 0.4 mN/m
surface tension liquid-gas (313.15 K, w2 = 0.0102): 44.6 ± 0.4 mN/m
surface tension liquid-gas (313.15 K, w2 = 0.0118): 44.9 ± 0.4 mN/m
surface tension liquid-gas (313.15 K, w2 = 0.0131): 45.2 ± 0.4 mN/m
mass density (313.15 K, w2 = 0.0081): 1102.2 ± 8 kg/m3
mass density (313.15 K, w2 = 0.0129): 1102.6 ± 8 kg/m3

— the NIST ThermoML archive (doi:10.1016/j.jct.2012.05.012)
